SMILES strings stand for the structures.

The series is described as follows: gradient 5% acetonitrile 3 min, to 50% in 2 min, to 85% in 15 min, held 3 min, 100 µL/min. To be noted: column: Zorbax Extend-C18 2.1 x 50 mm; eluents: water / acetonitrile, 0.1% formic acid. The essentials:
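Standards, all pure, were combined into mixtures of ~100 molecules and run at 100 μL/min on a Zorbax Extend-C18 column (2.1 × 50 mm, 1.8 μm) with water and acetonitrile, each containing 0.1% formic acid. A coupled quadrupole time-of-flight mass spectrometer operated in positive and negative ionization mode. Retention time values come from computationally picked adduct peaks, each inspected manually.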
Turning to `COc1cc(-c2nnc(-c3ccc(C)c(S(=O)(=O)N4CCCCC4)c3)o2)cc(OC)c1OC`, the RP-LC retention time was 1090 s.

As to `O=C(Cn1nc2c3sc(N4CCCCC4)nc3ncn2c1=O)Nc1cc(F)cc(F)c1`, the RP-LC retention time worked out at 828 s.

In turn, `CC1Oc2ccc(-c3csc(NC(=O)c4ccccc4)n3)cc2NC1=O` (stereo not drawn) came in with an RP-LC retention time of 862 s.

Compound `CCc1cccc(NS(=O)(=O)c2c(C)sc(C)c2-c2cc(C)[nH]n2)c1` gave an RP-LC retention time of 1130 s.

`COc1cccc(-c2csc(-c3nnn(-c4ccc(C)cc4)c3N)n2)c1` registered an RP-LC retention time of 1140 s.

`CCc1csc(-c2ccc(N3CCN(C(=O)c4c(F)cccc4F)CC3)nc2)n1`: the RP-LC retention time stood at 976 s.

`CCn1cc(CCNC(=O)Nc2cccc(Cl)c2F)c2cccnc21` showed an RP-LC retention time of 802 s.

`CCCC(CCC)C(=O)NCCc1c[nH]c2cc(OC)ccc12` yielded an RP-LC retention time of 886 s.

Compound `Cc1nc(CNC(=O)c2ccc(-c3noc(C4CC4)n3)cc2)no1` registered an RP-LC retention time of 717 s.

`COc1ccc(OC)c(CNC(=O)C2CCN(C(=O)C3Sc4ccccc4NC3=O)CC2)c1` (stereo not drawn) showed an RP-LC retention time of 743 s.

Compound `Cc1ccn2c(Nc3ccc4c(c3)OCCO4)c(-c3cccc(Br)c3)nc2c1` displayed an RP-LC retention time of 739 s.

Consider `O=S(=O)(c1cc(-c2noc(C3CCCC3)n2)cs1)N1CCC2(CC1)OCCO2`, for which the RP-LC retention time worked out at 1140 s.

Turning to `Cc1csc(-c2ccc(N3CCN(C(=O)Cc4cccc(Cl)c4)CC3)nc2)n1`, the RP-LC retention time turned out to be 896 s.

`CC(C)c1noc(-c2cccnc2N2CCCN(C(=O)NCc3ccccc3)CC2)n1` returned an RP-LC retention time of 920 s.

Consider `COCCCNC(=O)C1c2ccccc2CCN1C(C)=O` (stereo not drawn), for which the RP-LC retention time is 641 s.

For the compound `CN(Cc1nc2ccccc2n1Cc1ccc(F)cc1)C(=O)c1ccco1`, the RP-LC retention time came out at 714 s.

Compound `Cc1ccc(NC(=O)Cc2cn3cc(F)ccc3n2)c(C)c1` registered an RP-LC retention time of 610 s.

On to `COc1ccc(C(=O)N2CCC(n3c(-c4ccoc4)nc4cccnc43)C2)cc1OC` (stereo not drawn), for which the RP-LC retention time came out at 670 s.

On to `CCC(=O)Nc1ccc(C2(C(=O)N3CCN(c4cccc(C)c4)CC3)CCC2)cc1`, for which the RP-LC retention time turned out to be 908 s.

On to `Cc1noc(-c2nn(C)c3c2CN(C(=O)NCc2ccccc2)CC3)n1`, for which the RP-LC retention time was found to be 761 s.

In the case of `Cn1c(=O)c(C(=O)N2CCN(c3ccccn3)CC2)nn(-c2ccccc2)c1=O`, the RP-LC retention time worked out at 604 s.

Consider `COc1ccc(Nc2c(C(=O)N3CCC(C)CC3)cnc3nc(C)ccc23)c(OC)c1`, for which the RP-LC retention time was 662 s.

The compound `CCCNC(=O)c1cnn(-c2cc(-c3nc(C(C)(C)C)no3)ccn2)c1C` displayed an RP-LC retention time of 961 s.

In turn, `O=C1C2N=NN(Cc3nc(-c4ccc(Br)cc4)no3)C2C(=O)N1c1cccc(F)c1` (stereo not drawn) had an RP-LC retention time of 1080 s.

`Cn1cc(CN2CCC(C(=O)NCc3ccccc3F)CC2)c2cc(Cl)ccc21`: the RP-LC retention time stood at 705 s.

The compound `O=S(=O)(c1ccc(Br)cc1)N1CCc2nc[nH]c2C1` displayed an RP-LC retention time of 615 s.

As for `O=C(O)c1cnc(NCc2ccccn2)nc1-c1cccc(Cl)c1`, the RP-LC retention time is 613 s.

For the compound `Cc1ccc(S(=O)(=O)N2CCc3c(c(-c4nnc(-c5ccccc5)o4)nn3C)C2)cc1Cl`, the RP-LC retention time came out at 1070 s.

On to `Cc1nnc2n1-c1sccc1C(c1ccccc1)=NC2`, for which the RP-LC retention time worked out at 712 s.

For `O=C(O)CC1Sc2ccccc2NC1=O` (stereo not drawn), the RP-LC retention time is 607 s.

Compound `Cc1ccccc1CN1CCN(CC(=O)Nc2cccc(Cl)c2C)C(=O)C1=O` returned an RP-LC retention time of 792 s.

`O=C(Nc1ccc2ncnc(N3CCCC3)c2c1)c1cncc(Br)c1` showed an RP-LC retention time of 639 s.

In the case of `Cc1ccc(-n2c(=O)c3sccc3n(Cc3nc(-c4ccc(C(F)(F)F)cc4)no3)c2=O)cc1`, the RP-LC retention time amounted to 1190 s.

The compound `Cc1ccccc1-c1nnc(COc2ccc(NC(=O)c3ccsc3)cc2)o1` had an RP-LC retention time of 911 s.

As for `CCc1nc2cc(-c3noc(Cc4c(F)cccc4Cl)n3)ccc2o1`, the RP-LC retention time was 1150 s.

Consider `Cc1c(C(=O)Nc2ccnn2Cc2ccco2)oc2cc(Br)ccc12`, for which the RP-LC retention time is 1020 s.

Compound `Cn1ncc2c3ccccc3n(CCCC(=O)NCc3cccs3)c2c1=O` displayed an RP-LC retention time of 817 s.

`CN(C)c1ccc(-c2nc3cnccn3c2Nc2cccc(Cl)c2)cc1` displayed an RP-LC retention time of 879 s.

The compound `CS(=O)(=O)Nc1ccc(-c2noc(-c3cncc(Br)c3)n2)cc1` yielded an RP-LC retention time of 877 s.

`Cc1cc(C)cc(NC(=O)C2CCCN2S(=O)(=O)c2cc3c(cc2C)NC(=O)C(C)O3)c1` (stereo not drawn) displayed an RP-LC retention time of 852 s.

As for `CN1CCN(C(=O)c2nn(-c3ccc(Cl)cc3)c3c(=O)n(C)cnc23)CC1`, the RP-LC retention time came to 611 s.

`Cc1ccccc1NC(=O)N1CCN(c2nc(N3CCOCC3)nc(-n3ccnc3)n2)CC1` came in with an RP-LC retention time of 603 s.

Consider `O=c1c2nc(-c3ccc(Br)cc3)cn2ccn1-c1ccc(F)c(F)c1`, for which the RP-LC retention time is 924 s.

In turn, `CCN(CC)C(=O)c1ccc(-c2nc3cc(NS(=O)(=O)c4cc(F)ccc4C)ccc3n2C)cc1` registered an RP-LC retention time of 723 s.

Compound `CCN(CC)c1nc2cc(C(=O)OC)ccc2c(=O)n1-c1cccc(F)c1` showed an RP-LC retention time of 1120 s.

Take `CCN1CCN(c2nccc(-c3cnc4nc(-c5ccccc5)nn4c3C)n2)CC1`: the RP-LC retention time amounted to 633 s.

`COc1ccc(-c2nc3cnccn3c2Nc2c(C)cccc2C)cc1OC` came in with an RP-LC retention time of 784 s.

The compound `CC(C)c1ccc(NC(=O)C2CCCN(C(=O)C3Sc4ccccc4NC3=O)C2)cc1` (stereo not drawn) yielded an RP-LC retention time of 913 s.

On to `O=C(Cn1c(-c2cccs2)cc2cc(F)ccc21)NCCN1CCOCC1`, for which the RP-LC retention time was 680 s.

Compound `O=c1c(=O)n(-c2ccc(Cl)cc2)ccn1Cc1nc(-c2ccccc2)no1` showed an RP-LC retention time of 860 s.

Consider `O=C(C1=CN(c2ccc(Oc3ccccc3)cc2)c2cc(F)ccc2S1(=O)=O)N1CCOCC1`, for which the RP-LC retention time is 958 s.

`Cn1cccc1C(=O)C(=O)N1CCN(Cc2ccc3c(c2)OCO3)CC1` yielded an RP-LC retention time of 596 s.

For the compound `CCOC(=O)c1[nH]c(C)c(S(=O)(=O)N2CCN(c3ccccn3)CC2)c1C`, the RP-LC retention time stood at 640 s.

Regarding `O=C(CN1CCN(Cc2ccc(F)cc2Cl)C1=O)NCCCc1ccccc1`, the RP-LC retention time was 930 s.

Consider `CCc1ccc(-n2cc(C(=O)O)nn2)cc1`, for which the RP-LC retention time is 727 s.

As to `O=C(C1=CN(c2ccc(Br)cc2)c2cc(Cl)ccc2S1(=O)=O)N1CCOCC1`, the RP-LC retention time came out at 924 s.

`Cn1c(=O)c2c(-c3cccc(Br)c3)n(Cc3ccco3)cc2n(C)c1=O` yielded an RP-LC retention time of 971 s.

`COc1ccc(-c2nnc(N3CCC(C(=O)Nc4ccc(OC)cc4OC)CC3)o2)cc1` registered an RP-LC retention time of 837 s.

For the origin of these results see the METLIN SMRT retention time set (Domingo-Almenara et al. 2019).
